Data taken from patent US20040044178A1, “Hepatotropic conjugates of antiblastic drugs accomplishing a loco-regional chemotherapy of liver micrometastases after adminstration by peripheral venous route” (priority 2001, published 2004).
Where two headings read alike, the source gives them in different places.

Legend:
[1] = [^3H]FUdR levels in inferior vena cava (IVC) and hepatic veins (HV) of rats intravenously injected with free or L-HSA conjugated [^3H]FUdR; assay type: in vivo; details: rat
From the text: Two radioactive conjugates were synthesised: one labelled in the carrier (L-[^14C]HSA-FUdR) and one in the drug moiety (L-HSA-[^3H]FUdR). […] The conjugateradioactive in the drug moiety (three preparations) was obtained using [^3H]FUdR (Moravek).
They were obtained from Harlan Italy and were maintained in an animal facility at the Department of Experimental Pathology, Bologna, receiving humane care, in accordance with European Legislation. The protocols of the experiments were approved by the Ethical Committee of the University of Bologna. Animals. were fed a standard pellet diet ad lib.
Plasma levels of free [^3H]FUdR were measured by using the isotope dilution procedure and HPLC. In order to identify the elution time of [^3H]FUdR in HPLC chromatogram and to evaluate the recovery, 15 μg of unlabeled FUdR was added to each plasma sample (400 μl), kept cold in ice. Plasma proteins were removed by the addition of 30 μl trichloroacetic acid 80% and centrifugation at 2-4° C. After diethylether extraction to eliminate trichloroacetic acid, […] supernatant was chromatographed on a Spherisorb ODS2 equilibrated on 20 mM sodium tetraborate pH 7.5 and eluted with a linear gradient of methanol (0-30%). Radioactivity eluting at the position of FUdR marker was counted and the plasma concentration of [^3H]FUdR was calculated taking into account the recovery of the marker (measured by UV absorbance) and the specific activity (SA) of injected [^3H]FUdR. […] When radioactivity of FUdR peak was lower than 200 dpm, the plasma concentration of [^3H]FUdR was considered below a measurable level (BML). With a 90% recovery of FUdR marker, the lowest measurable plasma concentration was about 25 ng [^3H]FUdR/ml.
These concentrations are a measure of drug levels in systemic circulation and in liver blood, respectively.

[2] = system: serum alanine aminotransferase (ALT); assay: Effect on alanine aminotransferase (ALT) serum levels in mouse; assay type: in vivo
Experimental: To verify whether the selective delivery of FUdR to hepatic cells accomplished by the conjugate causes liver damage, we compared the effect of free and conjugated FUdR on the serum alanine aminotransferase (ALT) (EC 2.6.1.2) level in mice (Table 3). An increase in the level of this enzyme is an index of hepatocyte damage. The drugs were administered according to the schedule used for the experiments on the growth of hepatic metastases.

[3] = system: hepatic metastases of murine colon carcinoma C-26 cells; assay: Effect of free and conjugated FUdR on liver metastases of C-26 cells in mouse; assay type: in vivo; details: for Increase of liver weight: saline 1.22 ± 0.25; for Total Liver DNA: saline 11.83 ± 1.75
Experimental: Female Balb/C mice 7-8 weeks old (weighing 16-19 g) and male Wistar rats (weighing 170-190 g) were used. They were obtained from Harlan Italy and were maintained in an animal facility at the Department of Experimental Pathology, Bologna, receiving humane care, in accordance with European Legislation. The protocols of the experiments were approved by the Ethical Committee of the University of Bologna. Animals. were fed a standard pellet diet ad lib.
Compounds were injected intravenously every other day, starting 24 h after inoculation of tumour cells. Four administrations were performed, and the animals were sacrificed one day after the injection.

[4] = patients with colorectal cancer, intravenous continuous infusion of a therapeutic dose; cited from earlier work
[5] = Exp. 1, daily dose 5 μg/g i.v. every other day x4, NS

Compound `O=c1[nH]c(=O)n([C@H]2C[C@H](O)[C@@H](CO)O2)cc1F` [Free FUdR, 5-fluoro-2′-deoxyuridine] has a concentration at 15 min ([1]; male, Wistar, plasma of hepatic vein blood, iv, i.v. 2.5 μg/g, 15 min, read-out: [^3H]FUdR level HV) of 57.6 ± 9 ng/mL, a concentration at 7 min ([1]; male, Wistar, plasma of hepatic vein blood, iv, i.v. 10 μg/g, 7 min, read-out: [^3H]FUdR level HV) of 385 ng/mL and a concentration at 15 min ([1]; male, Wistar, plasma of hepatic vein blood, iv, i.v. 10 μg/g, 15 min, read-out: [^3H]FUdR level HV) of 203 ng/mL. For the same compound, the concentration at 30 min ([1]; male, Wistar, plasma of hepatic vein blood, iv, i.v. 10 μg/g, 30 min, read-out: [^3H]FUdR level HV) was 77.5 ± 43.6 ng/mL, the concentration at 15 min ([1]; male, Wistar, plasma of hepatic vein blood, iv, i.v. free 1.2 μg/g, 15 min, read-out: [^3H]FUdR level HV) was 40.9 ± 7.7 ng/mL and the concentration at 7 min ([1]; male, Wistar, plasma of inferior vena cava blood, iv, i.v. 0.15 μg/g, 7 min, read-out: [^3H]FUdR level IVC) was 80.1 ± 4.2 ng/mL. The concentration at 15 min ([1]; male, Wistar, plasma of inferior vena cava blood, iv, i.v. 2.5 μg/g, 15 min, read-out: [^3H]FUdR level IVC) was 404 ± 47.9 ng/mL, the concentration at 30 min ([1]; male, Wistar, plasma of inferior vena cava blood, iv, i.v. 2.5 μg/g, 30 min, read-out: [^3H]FUdR level IVC) was 156 ± 51.9 ng/mL and the concentration at 45 min ([1]; male, Wistar, plasma of inferior vena cava blood, iv, i.v. 2.5 μg/g, 45 min, read-out: [^3H]FUdR level IVC) was 25.5 ± 0.2 ng/mL. The concentration at 7 min ([1]; male, Wistar, plasma of inferior vena cava blood, iv, i.v. 10 μg/g, 7 min, read-out: [^3H]FUdR level IVC) was 1570 ng/mL, the concentration at 15 min ([1]; male, Wistar, plasma of inferior vena cava blood, iv, i.v. 10 μg/g, 15 min, read-out: [^3H]FUdR level IVC) was 1060 ng/mL and the concentration at 30 min ([1]; male, Wistar, plasma of inferior vena cava blood, iv, i.v. 10 μg/g, 30 min, read-out: [^3H]FUdR level IVC) was 467 ± 228 ng/mL. For the same compound, the concentration at 15 min ([1]; male, Wistar, plasma of inferior vena cava blood, iv, i.v. free 1.2 μg/g, 15 min, read-out: [^3H]FUdR level IVC) was 275.2 ± 0.7 ng/mL, the concentration at 30 min ([1]; male, Wistar, plasma of inferior vena cava blood, iv, i.v. free 1.2 μg/g, 30 min, read-out: [^3H]FUdR level IVC) was 38.9 ± 5.8 ng/mL and the “[^3H]FUdR level HV” value ([1]; i.v. 0.15 μg/g, 7 min) was “BML^b) (Below Measurable Level (<25 ng/ml))”. The “Levels in HV / Levels in IVC” value ([1]; i.v. 2.5 μg/g, 15 min) was 0.15 ± 0.04, the “Levels in HV / Levels in IVC” value ([1]; i.v. 2.5 μg/g, 30 min) was 0.19 and the “[^3H]FUdR level HV” value ([1]; i.v. 2.5 μg/g, 45 min) was “BML (Below Measurable Level (<25 ng/ml))”. For the same compound, the “Levels in HV / Levels in IVC” value ([1]; i.v. 10 μg/g, 7 min) was 0.24, the “Levels in HV / Levels in IVC” value ([1]; i.v. 10 μg/g, 15 min) was 0.19 and the “Levels in HV / Levels in IVC” value ([1]; i.v. 10 μg/g, 30 min) was 0.16 ± 0.02. For the same compound, the “Levels in HV / Levels in IVC” value ([1]; i.v. free 1.2 μg/g, 15 min) was 0.15 ± 0.03, the “[^3H]FUdR level HV” value ([1]; i.v. free 1.2 μg/g, 30 min) was “BML (Below Measurable Level (<25 ng/ml))” and the “[^3H]FUdR level HV” value ([1]; i.v. free 1.2 μg/g, 60 min) was “BML (Below Measurable Level (<25 ng/ml))”. The “[^3H]FUdR level IVC” value ([1]; i.v. free 1.2 μg/g, 60 min) was “BML (Below Measurable Level (<25 ng/ml))”, the “Serum ALT levels” value ([2]; Exp 2, 50 μg/g, four i.v. injections on alternate days, saline 64.5 ± 15.0, p = 0.045) was 114.8 ± 16.0 p = 0.045 U/I and the “Effect on serum ALT level” value ([2]; dose 5 times higher than that active on the metastases) was “increase in ALT levels at the limit of statistical significance”. For the same compound, the “Increase of liver weight” value [3, 5] was 1.00 ± 0.17 g, the “Total Liver DNA” value [3, 5] was 9.47 ± 1.06 mg and the “Increase of liver weight” value ([3]; Exp. 1, daily dose 10 μg/g i.v. every other day x4, p = 0.070) was 0.64 ± 0.15 g. For the same compound, the “Total Liver DNA” value ([3]; Exp. 1, daily dose 10 μg/g i.v. every other day x4, p = 0.041) was 7.32 ± 0.91 mg, the “Daily dose that inhibited the tumour growth” value ([3]; i.v. every other day, four administrations) was 10 µg/g and the “Estimated blood concentration of the drug” value [4] was “about 0.2 ng/ml”.
